One experiment deals with T1, 3′GT (Gentiana triflora, UniProt Q8H0F2).
T1 construct: the region from the initiation methionine to poly A of pG3′GT7 was inserted in the NcoI/KpnI site of E. coli expression vector pQE61; made in house; host or cells: Escherichia coli JM105 (vector pQE61, plasmid pG3′Q1)
T1 sequence (Q8H0F2 1-482): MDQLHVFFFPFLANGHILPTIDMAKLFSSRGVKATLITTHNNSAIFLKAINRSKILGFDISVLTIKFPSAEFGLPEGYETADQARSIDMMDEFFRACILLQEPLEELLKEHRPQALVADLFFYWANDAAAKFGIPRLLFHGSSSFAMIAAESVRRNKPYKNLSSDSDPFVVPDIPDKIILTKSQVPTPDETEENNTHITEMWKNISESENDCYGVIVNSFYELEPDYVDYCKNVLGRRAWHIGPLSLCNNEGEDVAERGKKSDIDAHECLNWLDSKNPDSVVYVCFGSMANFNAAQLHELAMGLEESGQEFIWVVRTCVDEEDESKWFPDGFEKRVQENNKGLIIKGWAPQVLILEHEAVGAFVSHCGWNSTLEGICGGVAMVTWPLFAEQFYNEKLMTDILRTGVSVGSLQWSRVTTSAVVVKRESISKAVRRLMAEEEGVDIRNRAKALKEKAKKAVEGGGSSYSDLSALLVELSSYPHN
Nature of the experiment: Analysis of substrate specificity of purified 3′GT expressed in Escherichia coli (glucose transfer from UDP-glucose, HPLC). Type of experiment: biochemical, gentian. The settings on record: compound used as substrate; for 3′GT activity to substrate (qualitative): purified sample of 3′GT from E. coli; for relative activity: activity to delphinidin 3,5-glucoside assumed to be 100%. As to the method: (§1) 20 μl of the crude enzyme extract solution, 10 μl of 0.5M potassium phosphate (pH 8.5), 10 μl of 5 mM UDP-glucose, 10 μl of delphinidin 3,5-diglucoside (1.5 mg/ml) were mixed and maintained at 30° C. for 10 minutes. Then, following the procedure of Fujiwara et al. (Fujiwara et al. Plant J. (1998)), reaction was terminated, and the reaction product was analyzed using high performance liquid chromatography (HPLC). As a result, it was determined that gentian flower petals contain an enzyme having activity to transfer a glycosyl group to the 3′-position of an anthocyanin.
Using the PCR method, an NcoI site was introduced so as to coincide with the initiation methionine codon of pG3′GT7, and the region from the initiation methionine to poly A of pG3′GT7 was inserted in the NcoI/KpnI site of E. coli expression vector pQE61 (QIAGEN). The obtained E. coli expression vector was denoted by pG3′Q1. pG3′Q1 was introduced into the Escherichia coli JM105 strain, and after preculturing overnight at 37° C., a part of the precultured medium was innoculated into 8 L of a main culture medium, and was cultured at 27° C. until OD600=0.6. To induce expression of the 3′GT gene, IPTG was added so as to reach a final concentration of 0.4 mM, and was cultured overnight at 27° C. After cells were collected, washed, and suspended in 400 ml of crushing buffer (25 mM Tris-HCl (pH 7.5), 250 mM NaCl, 1 mM EDTA, 0.5% β-mercaptoethanol), the cells were disrupted by ultrasonic treatment. After centrifuging, the resultant supernatant was subjected to processing with DE52, and a 40–70% ammonium sulfate precipitate fraction was recovered. After desalting, the crude protein solution was loaded onto a DEAE-TOYOPEARL (Toso Co.) preequilibrated with buffer C (25 mM Tris-HCl (pH 7.5), 0.5% β-mercaptoethanol), and was eluted with buffer C containing 0–0.5 M NaCl. The active fraction was recovered, adsorbed to BlueA (Amicon Co.) equilibrated buffer C, and was eluted with a linear gradient formed with the buffer C and the buffer C containing 2 M NaCl. The obtained active fraction was used in the reaction, to be described later, as a purified sample of the 3′GT portion.
Using the purified sample of the 3′GT portion obtained in Example 6, the substrate-specificity of the 3′GT was analyzed. […] Assuming the relative activity to delphinidin 3,5-glucoside to be 100%, the activity to delphinidin 3-glucosyl-5-caffeoylglucoside is about 50%. Trace amount of products (1% or less) were also observed using delphinidin or delphinidin 3-diglucoside as a substrate. From retention time of HPLC and the absorption spectrum, the reaction product is considered to be a substrate having a glycosyl group added to the 3′-position thereof.

Experiment [1] has as its target T2, protein which has activity to transfer a glycosyl group to the 3′-position of anthocyanins (Gentiana triflora, UniProt Q8H0F2).
T2 construct: A DNA fragment of approximately 1.6 kbp, which was obtained by digestion of pG3′GT7 with XhoI, was recovered; made in house; extract after glass-bead disruption
T2 sequence (Q8H0F2 1-482): T1 sequence (Q8H0F2 1-482)
Nature of the experiment: Enzyme activity of extract from yeast transformed with pYG3′GT7 (measured as in Example 1, HPLC). The settings on record: compound used as substrate. The experiment is classed as biochemical, gentian. On the procedure: as §1
A DNA fragment of approximately 1.6 kbp, which was obtained by digestion of pG3′GT7 with XhoI, was recovered. This DNA was ligated to a DNA fragment obtained by digesting pYE22m with SaII, and the obtained plasmid that has the initiation codon nearer to the promotor on pYE22m was denoted by pYG3′GT7. pYE22m was constructed according to the method as set forth in Japanese Patent Publication No. 4-228078. This plasmid was introduced into yeast cells to obtain transformed yeast cells. After the yeast cells were cultured and disrupted with glass beads, enzyme activity was measured as in Example 1 using delphinidin 3,5-diglucoside as substrate.
No activity was found in the yeast in which the plasmid was not introduced. When cyanidin 3,5-diglucoside was used as substrate, no new peak was produced.

The values below come from US7160700B2, “Glycosyltransferase genes” (International Flower Developments Proprietary Limited, priority 2000, dated 2007).

Turning to `OC[C@H]1O[C@@H](Oc2cc3c(O[C@@H]4O[C@H](CO)[C@@H](O)[C@H](O)[C@H]4O)cc(O)cc3[o+]c2-c2ccc(O)c(O)c2)[C@H](O)[C@@H](O)[C@@H]1O` [cyanidin 3,5-diglucoside], on 3′GT, the “3′GT activity to substrate (qualitative)” value is on record as “not”. The “activity for adding a glycosyl group to substrate (qualitative)” value in experiment [1] is listed as “exhibits no activity”.

As to `OC[C@H]1O[C@@H](Oc2cc3c(O[C@@H]4O[C@H](CO)[C@@H](O)[C@H](O)[C@H]4O)cc(O)cc3[o+]c2-c2cc(O)c(O)c(O)c2)[C@H](O)[C@@H](O)[C@@H]1O` [delphinidin 3,5-diglucoside], on 3′GT, the relative activity amounted to 100% and the “3′GT activity to substrate (qualitative)” value is “exhibits activity”. Also, in experiment [1], the “activity for adding a glycosyl group to substrate (qualitative)” value was “exhibits activity”.

Turning to “delphinidin 3-glucosyl-5-caffeoylglucoside”, at 3′GT, the relative activity entry is listed as “about 50%” and the “3′GT activity to substrate (qualitative)” value is reported as “exhibits activity”.
